Consider 3 compounds from patent publication US5574062A, “Coumarin derivative and use thereof” (Morinaga Milk Industry Co., Ltd., priority 1993, dated 1996).

As a reminder, the IC50 is the concentration that gives 50% inhibition.

Data set [1] is described as follows: Formation of deacylated compounds by esterases in rat platelet enzyme solution (HPLC). It is filed as in vitro ADME, rat (platelets). Particulars: rat, platelet enzyme solution, 37° C., enzyme solution, read-out: conversion ratio to Formula 34b. Here is the method: (§1) The test was performed to examine whether or not deacylated compounds would be formed due to esterases present in the enzyme solution when the compounds in the third embodiment according to the present invention were treated with the same enzyme solution as in Test Example 3.
(§2) The enzyme solution was prepared according to the same procedure as described in Test Example 1.
(§3) One ml of the above mentioned enzyme solution was diluted with 11 ml of a resuspension buffer. To an aliquot (300 μl) of this enzyme solution was added 3 μl of a 1.0×10^-3 M test compound solution in dimethyl sulfoxide. The mixture was incubated at 37° C. for an indicated time, then the reaction was ceased by the addition of 1 ml of acetonitrile. Twenty μl of the above mixture was subjected to reverse phase high-performance liquid chromatography equipped with a C-18 column to quantify the amount of deacylated products. As a control, a test using 300 μl of the resuspension buffer solution mentioned above instead of the enzyme solution was also performed.
(§4) Conditions of reverse phase high-performance liquid chromatography:
(§5) Column: Superspher RP-18(e) (purchased from Merck), 4.0 mm in diameter, 125 mm in length
(§6) Flow velocity: 1.0 ml/minute
(§7) Eluent: Acetonitrile containing 50 mM NaClO4 and 50 mM orthophosphate-water (55:45)
(§8) Column temperature: 30° C.
(§9) Calibration: Absorbance of 280 nm
(§10) The results of the test upon the compounds of Example 40 (Formula 43b) and Example 57 (Formula 74b) of the compounds according to the present invention will be shown. Since both the compounds of Example 40 (Formula 43b) and Example 57 (Formula 74b) are thought to be converted into the compound of Referential Example 8 (Formula 34b) through deacylation, the retention time of the compound of Referential Example 8 was checked strictly under the employed conditions with reverse phase high-performanceliquid chromatography mentioned above (retention time: 2.49 minutes) and a calibration curve of the compound was made using authentic sample of Referential Example 8.

The subject of data set [2] is esterases present in the enzyme solution. The data set is described as above. It is filed as in vitro ADME, rat (platelets). Particulars: resuspension buffer instead of the enzyme solution. How it is done:
as §1, §2, §3, §4, §5, §6, §7, §8, §9, §10

Data set [3] deals with 12-lipoxygenase. Particulars: same concentration (10 uM), platelets; cited from earlier work.
Data set [4] has as its system 5-lipoxygenase. The following applies: 10 uM, cited from earlier work.
In data set [5] the target is T1, 5-lipoxygenase (Rattus norvegicus, UniProt P12527).
T1 construct: host or cells: RBL-1 (rat basophilic leukemia cells)
T1 sequence (P12527 1-673): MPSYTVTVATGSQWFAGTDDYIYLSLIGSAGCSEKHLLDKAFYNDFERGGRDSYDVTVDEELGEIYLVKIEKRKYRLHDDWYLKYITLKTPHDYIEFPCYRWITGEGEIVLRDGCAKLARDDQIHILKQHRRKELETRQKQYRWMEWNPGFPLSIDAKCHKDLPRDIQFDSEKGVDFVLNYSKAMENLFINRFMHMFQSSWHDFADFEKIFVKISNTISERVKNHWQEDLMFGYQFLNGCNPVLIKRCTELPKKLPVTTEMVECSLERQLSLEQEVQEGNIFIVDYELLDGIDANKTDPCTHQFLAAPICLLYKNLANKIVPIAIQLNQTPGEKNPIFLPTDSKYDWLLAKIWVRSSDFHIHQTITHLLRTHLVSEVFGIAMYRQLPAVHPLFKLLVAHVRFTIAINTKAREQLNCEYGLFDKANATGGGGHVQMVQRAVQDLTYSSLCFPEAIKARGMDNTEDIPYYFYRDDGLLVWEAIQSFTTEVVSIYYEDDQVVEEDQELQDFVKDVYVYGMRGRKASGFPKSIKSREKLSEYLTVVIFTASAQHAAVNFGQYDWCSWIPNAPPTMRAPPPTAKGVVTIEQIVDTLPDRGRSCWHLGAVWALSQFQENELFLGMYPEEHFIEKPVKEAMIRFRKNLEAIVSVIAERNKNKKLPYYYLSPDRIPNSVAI
Nature of the data set: 5-lipoxygenase inhibition assay (RBL-1 supernatant, arachidonic acid, HPLC of 5-HETE). The data set is classed as biochemical, rat (basophilic leukemia cells RBL-1, ATCC CRL1378). How it is done:
Rat basophilic leukemia cells (RBL-1, ATCC CRL1378) were cultured in Dulbecco modified Eagle's medium containing 10% new-born bovine serum.
Cultured cells were collected and washed twice with a 50 mM Tris-buffered saline (containing 154 mM sodium chloride, pH: 7.4, hereinafter described as TBS). The cell suspension (4×10^7 cells/ml) was then sonicated and centrifuged at 10,000×g for 10 minutes.
The resultant supernatant was used to prepare an assay solution.
To an aliquot (15 μl) of the enzyme solution (40 mU/ml equivalent) was added 185 μl of TBS, 50 μl of a 2 mM adenosine triphosphate in TBS, 50 μl of a 12 mM calcium chloride in TBS, 1 μl of a 3 mM indomethacin in ethanol solution, 1 μl of an aqueous 300 mM reduced glutathione solution, and 3 μl of varied concentrated test compounds solution in ethanol. The resultant mixture was incubated at 37° C. for 5 minutes. Subsequently, 3 μl of a 2.5 mM arachidonic acid solution in ethanol was added to incubate the mixture for 2 minutes at 37° C. The reaction was ceased by the addition of 600 μl of methanol. After being centrifuged at 10,000×g for 5 minutes, 5-hydroxyeicosatetraenoic acid recovered in the supernatant was separated with a reverse phase high-performance liquid chromatography equipped with a C-18 column and measured the absorption of diene at 234 nm to quantify the activity of the enzyme.
Using the compounds of the present invention prepared in the same manner as in Examples 1-30, and Examples 33-36 as test samples and known baicalein (purchased from Wako Junyaku Kogyo) represented by the following formula 30 as a control: [drawing 34] the tests were performed for dose dependent inhibition to estimate IC50 values
It was prepared in the same method as in Test Example 2.
They were measured in the same method as in Test Example 2.

Data set [6] concerns 12-lipoxygenase of mastocytoma cells. Particulars: literature; cited from earlier work.
The target in data set [7] is T2, 12-lipoxygenase (Rattus norvegicus, UniProt F1LQ70).
T2 construct: The platelets were then sonicated at 4° C. and centrifuged at 100,000×g for 30 minutes to obtain a supernatant as a 12-lipoxygenase enzyme solution; from tissue; host or cells: Sprague Dawley rat platelets (from aortic blood), sonicated, 100,000 x g supernatant
T2 sequence (F1LQ70 1-663): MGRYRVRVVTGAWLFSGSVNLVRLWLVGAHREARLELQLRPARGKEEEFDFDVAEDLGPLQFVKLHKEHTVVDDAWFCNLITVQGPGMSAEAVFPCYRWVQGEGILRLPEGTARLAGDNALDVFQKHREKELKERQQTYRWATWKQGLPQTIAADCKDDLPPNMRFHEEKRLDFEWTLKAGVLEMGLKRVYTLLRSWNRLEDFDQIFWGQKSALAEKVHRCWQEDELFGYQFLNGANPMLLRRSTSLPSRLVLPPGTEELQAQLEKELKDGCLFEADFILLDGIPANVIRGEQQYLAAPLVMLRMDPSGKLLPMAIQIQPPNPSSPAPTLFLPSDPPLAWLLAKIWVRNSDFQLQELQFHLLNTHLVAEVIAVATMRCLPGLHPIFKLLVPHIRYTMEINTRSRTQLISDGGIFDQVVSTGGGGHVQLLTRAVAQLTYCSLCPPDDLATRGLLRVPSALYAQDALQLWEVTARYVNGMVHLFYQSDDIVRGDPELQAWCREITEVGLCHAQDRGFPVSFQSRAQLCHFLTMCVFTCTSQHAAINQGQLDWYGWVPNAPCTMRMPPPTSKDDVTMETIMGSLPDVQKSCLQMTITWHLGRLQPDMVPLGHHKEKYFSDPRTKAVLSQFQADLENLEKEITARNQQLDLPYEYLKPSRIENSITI
Kind of data set: 12-lipoxygenase inhibition assay (rat platelet supernatant, arachidonic acid, HPLC of 12-HETE). It is filed as biochemical, Sprague Dawley male rat (platelets). Here is the method: (§11) A Sprague Dawley male rat was anesthetized with ether and bled from abdominal aorta using a syringe filled with about one-tenth volume of 3.8% sodium citrate. Blood was centrifuged at 180×g for 15 minutes at room temperature to pellet sanguineous platelet blood plasma. The resultant supernatant was again centrifuged at 1800×g for 10 minutes at 4° C. The pelleted platelets were rinsed twice with a washing buffer (50 mM Tris-hydrochloric acid buffer containing 154 mM sodium chloride and 2 mM EDTA, pH: 7.4). The platelets were then suspended in one-twentieth volume of a resuspension buffer (50 mM Tris-hydrochloric acid buffer containing 154 mM sodium chloride and 5.5 mM glucose, pH: 7.4). The platelets were then sonicated at 4° C. and centrifuged at 100,000×g for 30 minutes to obtain a supernatant as a 12-lipoxygenase enzyme solution.
(§12) The enzyme solution described above was diluted with the resuspension buffer above mentioned to prepare an assay solution so as to include about 2 mU/ml of 12-lipoxygenase. To an aliquot (300 μl) of the assay solution was added 1 μl of a 3 mM indomethacin-ethanol solution, 1 μl of an aqueous 300 mM reduced-glutathione solution, and 3 μl of varied concentrated test compounds solution in ethanol. The resultant mixture was incubated at 37° C. for 5 minutes. Subsequently, 3 μl of a 2.5 mM arachidonic acid solution in ethanol was added to incubate with for another 5 minutes at 37° C., then the reaction was ceased by the addition of 600 μl of methanol. After being centrifuged at 10,000×g for 5 minutes, 12-hydroxyeicosatetraenoic acid recovered in the supernatant was separated with a reverse phase high-performance liquid chromatography equipped with a C-18 column and measured the absorption of diene at 234 nm to quantify the activity of 12-lipoxygenase.
(§13) As test compounds were used the compounds of the present invention prepared in the same methods as in Example 4, Example 5 and Example 8 and the compounds prepared in the same methods as in Comparative Examples 1-5, and as a control was used esculetin (purchased from Tokyo Kasei), a known compound represented by the following formula: [drawing 33] and the test was conducted at varied concentrations.
(§14) The enzyme solution was prepared according to the same manner as in Test Example 1.
(§15) The inhibition assay was performed according to the same method as described in Test Example 1 except that the same samples used in measurement of the 5-lipoxygensase activity were used to estimate IC50 values. […]
(§16) They were measured in the same method as in Test Example 1.

Data set [8] deals with 12-lipoxygenase. The description is as above. It is filed as biochemical, Sprague Dawley male rat (platelets). Particulars: comparative tests by the inventors. How it is done:
as §11, §12, §13, §14, §15, §16

Structures are written as SMILES.

For `CC(=O)Oc1cc2cc(-c3cccc(Cl)c3)c(=O)oc2cc1OC(C)=O` [Example 40], in data set [1] (reaction time 30 minute), the metabolised at 0.5 h, 10 µM is 70.7%. Further, the metabolised at 1 h, 10 µM in data set [1] (reaction time 60 minute) is 72.8%. For the same compound, in data set [2], the “formation of deacylated compound in buffer control” value was “no deacylated compound (Formula 34b) was formed”.
Turning to `Oc1ccc(C2COc3cc(O)c(O)cc3C2)cc1` (stereo not drawn) [compound of 12), 4',6,7-trihydroxyisoflavan], the “inhibition of formation of 12-lipoxygenase metabolic products” value with 12-lipoxygenase [3] was 25%. In the data set on 5-lipoxygenase [4] (human peripheral leukocytes), the “inhibition of formation of 5-lipoxygenase metabolic products” value is reported as “completely”. For the same compound, in the data set with 5-lipoxygenase [4] (literature, leukocytes vs. platelets), the “selectivity between 5-lipoxygenase and 12-lipoxygenase (in words)” value was “selective toward 5-lipoxygenase”.
On to `O=c1ccc2cc(O)c(O)cc2o1` [Esculetin, 6,7-dihydroxycoumarin, reference compound], for which the concentration for half-maximal inhibition (IC50) against 5-lipoxygenase [5] was 4.3 µM; in data set [6], 2.5 µM; against 12-lipoxygenase [7] (12-Lipoxygenase inhibiting activity IC50 value, Test Example 5, Table 22) it was 4.4 µM; at 12-lipoxygenase [7] (12-lipoxygenase IC50 value, Test Example 1, Table 1 and text), 4.4 µM. For the same compound, the “12-lipoxygenase inhibitory activity (in words)” value on 12-lipoxygenase [7] was “considerably weaker inhibitory effect on 12-lipoxygenase than the compounds of the present invention”. Also, in the data set on 12-lipoxygenase [8], the “selectivity between 12-lipoxygenase and 5-lipoxygenase (in words)” value is given as “no selectivity was found”.
